Experimental findings from BindingDB's records for patent US12065436 (Cytokinetics, 2024) are described below.

This assay deals with T1, Myosin-7 (Bos taurus, UniProt Q9BE39).
T1 construct: gene MYH7
T1 sequence (Q9BE39 whole entry, looked up): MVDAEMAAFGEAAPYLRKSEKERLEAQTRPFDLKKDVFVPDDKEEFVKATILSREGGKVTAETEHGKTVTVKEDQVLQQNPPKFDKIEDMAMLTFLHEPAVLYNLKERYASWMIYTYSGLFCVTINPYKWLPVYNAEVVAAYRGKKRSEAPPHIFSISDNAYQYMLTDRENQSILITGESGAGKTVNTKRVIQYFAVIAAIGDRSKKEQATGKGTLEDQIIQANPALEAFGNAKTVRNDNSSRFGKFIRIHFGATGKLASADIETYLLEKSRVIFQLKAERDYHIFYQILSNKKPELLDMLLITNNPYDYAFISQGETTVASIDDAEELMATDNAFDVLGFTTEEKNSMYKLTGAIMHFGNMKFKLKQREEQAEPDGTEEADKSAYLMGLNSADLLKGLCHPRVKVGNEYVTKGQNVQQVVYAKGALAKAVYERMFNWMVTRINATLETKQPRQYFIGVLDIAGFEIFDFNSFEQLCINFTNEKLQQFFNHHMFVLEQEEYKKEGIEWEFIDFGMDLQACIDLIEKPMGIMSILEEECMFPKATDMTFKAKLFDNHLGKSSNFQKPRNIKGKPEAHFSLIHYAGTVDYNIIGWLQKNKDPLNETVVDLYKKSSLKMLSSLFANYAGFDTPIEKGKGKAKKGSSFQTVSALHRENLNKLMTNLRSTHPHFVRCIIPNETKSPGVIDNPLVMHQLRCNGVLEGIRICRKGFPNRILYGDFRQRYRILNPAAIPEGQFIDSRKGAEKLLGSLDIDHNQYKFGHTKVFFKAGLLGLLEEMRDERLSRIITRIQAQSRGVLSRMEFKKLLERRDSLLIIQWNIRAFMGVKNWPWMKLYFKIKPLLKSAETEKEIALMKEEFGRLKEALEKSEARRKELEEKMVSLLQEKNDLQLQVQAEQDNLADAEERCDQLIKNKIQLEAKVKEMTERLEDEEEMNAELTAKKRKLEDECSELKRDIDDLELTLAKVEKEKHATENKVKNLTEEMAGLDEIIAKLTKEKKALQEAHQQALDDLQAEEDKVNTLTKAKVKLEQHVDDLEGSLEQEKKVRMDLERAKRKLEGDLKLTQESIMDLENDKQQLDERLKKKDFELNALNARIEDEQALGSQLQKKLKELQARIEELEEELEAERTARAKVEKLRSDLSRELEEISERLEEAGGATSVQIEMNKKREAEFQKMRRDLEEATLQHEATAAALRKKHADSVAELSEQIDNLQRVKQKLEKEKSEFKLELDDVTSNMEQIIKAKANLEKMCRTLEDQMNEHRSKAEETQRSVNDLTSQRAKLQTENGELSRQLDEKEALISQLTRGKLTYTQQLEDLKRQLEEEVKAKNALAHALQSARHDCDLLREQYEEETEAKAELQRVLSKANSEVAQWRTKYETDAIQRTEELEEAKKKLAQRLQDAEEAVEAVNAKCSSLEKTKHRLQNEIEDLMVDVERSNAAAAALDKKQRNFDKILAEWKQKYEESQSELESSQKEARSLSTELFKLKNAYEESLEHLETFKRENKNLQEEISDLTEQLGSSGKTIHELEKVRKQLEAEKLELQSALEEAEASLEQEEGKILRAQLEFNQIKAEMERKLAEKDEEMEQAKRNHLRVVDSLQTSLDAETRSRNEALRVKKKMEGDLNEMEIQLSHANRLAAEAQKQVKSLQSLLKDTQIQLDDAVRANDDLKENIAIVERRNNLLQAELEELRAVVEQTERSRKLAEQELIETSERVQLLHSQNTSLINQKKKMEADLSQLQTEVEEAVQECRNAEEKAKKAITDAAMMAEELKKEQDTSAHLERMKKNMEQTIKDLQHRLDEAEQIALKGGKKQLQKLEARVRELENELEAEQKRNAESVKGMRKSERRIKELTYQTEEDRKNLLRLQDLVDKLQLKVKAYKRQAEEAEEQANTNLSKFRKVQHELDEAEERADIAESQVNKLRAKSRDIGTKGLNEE
Kind of assay: Myofibril Assays. Here is the method:
To evaluate the effect of compounds on the ATPase activity of full-length cardiac myosin in the context of the native sarcomere, skinned myofibril assays were performed. Bovine cardiac myofibrils were obtained by homogenizing bovine cardiac left ventricular tissue in the presence of a detergent such as triton X-100. Such treatment removes membranes and a majority of the soluble cytoplasmic proteins but leaves intact the cardiac sarcomeric acto-myosin apparatus. Myofibril preparations retain the ability to hydrolyze ATP in an Ca2+ regulated manner. […] Small molecule agents were assessed for their ability to inhibit the steady-state ATPase activity of bovine cardiac myofibrils using pyruvate kinase and lactate dehydrogenase (PK/LDH)-coupled enzyme system. This assay regenerates myosin-produced ADP into ATP by oxidizing NADH, producing an absorbance change at 340 nm.
`Cc1nc(-c2ccc3c(c2)CCC3NC(=O)Nc2cnccn2)no1` (stereo not given) [US12065436, Compound 86] returned an IC50 of 14.9 µM.
Compound `Cc1cnoc1C(=O)N[C@@H]1CCc2cc(-c3noc(C(F)F)n3)ccc21` [US12065436, Compound 93] had an IC50 of 0.9 µM.
The value for `Cc1cc(C(=O)NC2CCc3cc(-c4noc(C(F)F)n4)ccc32)on1` (stereo not given) [US12065436, Compound 102] was 5.8 µM; that for `Cc1cnoc1C(=O)NC1CCc2cc(-c3noc(C(F)F)n3)ccc21` (stereo not given) [US12065436, Compound 103] was 2.2 µM.
As for `O=C(N[C@@H]1CCc2cc(-c3noc(C4CC4)n3)ccc21)C1CC1` [US12065436, Compound 318], half-maximal inhibition (IC50) was put at 9.3 µM.
`CCc1cc(-c2ccc3c(c2)CC[C@H]3NC(=O)OC)no1` [US12065436, Compound 345]: half-maximal inhibition (IC50) was put at 0.8 µM.
`Cn1cc(C(=O)N[C@@H]2CCc3cc(-c4noc(C5CCC5)n4)ccc32)cn1` [US12065436, Compound 411]: the IC50 came out at 3.2 µM.
In the case of `CCc1nc(-c2ccc3c(c2)CC[C@H]3NC(=O)c2cnn(C3CN(C(=O)OC(C)(C)C)C3)c2)no1` [US12065436, Compound 471] it was 7.1 µM; in that of `CCc1nc(-c2ccc3c(c2)CC[C@H]3NC(=O)c2cnn(C3CN(C(=O)OC)C3)c2)no1` [US12065436, Compound 480], 39.2 µM.
`COCc1nc(-c2ccc3c(c2)CC[C@H]3NC(=O)c2cnc(C)n2C)no1` [US12065436, Compound 691] registered a 50% inhibitory concentration (IC50) of 5.8 µM.
